From US20180354920A1, “SUBSTITUTED OXADIAZOLES FOR COMBATING PHYTOPATHOGENIC FUNGI” (BASF SE, priority 2015, published 2018)

melting point: 130 °C
SMILES: CCC(=O)Nc1ccc(-c2noc(C(F)(F)F)n2)cn1 [Ex-1, N-[5-[5-(trifluoromethyl)-1,2,4-oxadiazol-3-yl]-2-pyridyl]propanamide]
